Data on 18 compounds can be found in US6297250A, “Pyrimidopyrimidine compounds” (Newcastle University Ventures Limited, priority 1997, dated 2001).

For the experiment, the system named is L1210 cells. Description: Nucleoside transport inhibition assay: inhibition of 3H-thymidine uptake, with or without AGP or HSA. It is filed as cell-based, murine. The following applies: for inhibition at 1 µM: L1210, 1 μM compound; for inhibition at 10 µM: L1210, 10 μM compound; for Effect of AGP on the inhibition of thymidine uptake: in words; for inhibition at 0.25 µM: L1210, 0.25 μM compound. How it is done:
In vitro activity. […] For testing the compounds an established nucleoside transport assay involving measurement of thymidine uptake was adapted. Murine leukaemia L1210 cells were used in this assay as their nucleoside transport characteristics are well known. This assay for measuring thymidine uptake used a modification of the rapid mixing technique of Wohleheuter, R. […] Materials used included a transport buffer comprising 130 mM NaCl, 5 mM KC1, 1 mM MgCl, 5 mM NaH2 PO4, 10 mM glucose and 10 mM HEPES. This buffer was made up as sterile 5× concentrate and reconstituted in distilled water and adjusted to pH 7.4 immediately prior to carrying out the assay. […] The supernatant was aspirated and the cells were washed with ice-cold transport buffer and centrifuged again at 1000 rpm for 5 minutes at 4° C. The supernatant was removed and the cells were resuspended in ice-cold transport buffer to give a final cell density of 2-4×10^7 cells/mi. Cells were left on ice for 30 minutes recovery prior to starting the assay. […] The suspension was mixed well and 100 μl was layered onto 150 μl silicone oil (9:11 Dow Corning 556 (Sp.Gr. 0.98):Dow Corning 550 (Sp.Gr. 1.068) (final Sp.Gr. 1.028) overlaying 50 μl 3M KOH in 6 replicate 0.5 ml microfuge tubes. […] The tubes were immediately transferred to a microfuge (Eppendorf) and spun at 12000 rpm for 2 minutes to pellet the cells through the oil and into the KOH. The tubes were capped and the cells left to solubilise in the KOH for 1 hour. Cell number and viability for each run was determined by haemocytometer counting using trypan blue exclusion. […] The tubes were capped and cut in the oil layer such that the bottom portion (cells solubilised in KOH) fell into a 20 ml scintillation vial. 1 ml 0.25M acetic acid followed by 1 ml air was injected into the tube using a 2 ml syringe and 23-gauge needle to disperse and neutralise the KOH-solubilisedcells. 10 ml of Optiphase HiSafe™ scintillant was added and the vials capped and shaken. […] The [^14 C]:[^3 H] ratio was used to calculate the amount of non-transported contaminating [^3 H]thymidine in the extracellular space.

[1] abbreviates: Mus musculus, no AGP, read-out: % Inhibition of 3H-thymidine uptake, No AGP.
The mark [2] stands for this setting: Mus musculus, +5 mg/ml AGP vs no AGP, read-out: % Reduction (of inhibition by AGP).
Setting [3] is: Mus musculus, +5 mg/ml AGP, read-out: % Inhibition of 3H-thymidine uptake, +5 mg/ml AGP.

Values joined by “and” are separate entries in the source; they are usually repeats but may differ in a detail not shown here. Equal values may be shown once. Read-outs that look alike come from different tables or passages of the source.

In the case of `OCCN(CCO)c1nc(NCc2ccc(C(F)(F)F)cc2)c2nc(N(CCO)CCO)nc(NCc3ccc(C(F)(F)F)cc3)c2n1` [NU3079, 2,6-bis(Diethanolamino)-4,8-di[(4'-trifluoromethylbenzyl)amino]pyrimido pyrimidine], under setting [1], the inhibition at 1 µM turned out to be 32 ± 11% and the inhibition at 10 µM turned out to be 60 ± 7%.

Broadly, the IC50 is the concentration needed to halve the response being measured. A lower IC50 goes with higher potency. As for `OCCN(CCO)c1nc(N2CCc3ccccc3C2)c2nc(N(CCO)CCO)nc(N3CCc4ccccc4C3)c2n1` [NU3080, 2,6-bis-Diethanolamino-4,8-di-(N-1,2,3,4-tetrahydroisoquinolyl)pyrimidopyrimidine], the inhibition at 1 µM under setting [1] is 72 ± 22%. The inhibition at 10 µM by setting is: under setting [2], 31%; under setting [3], 69%; under setting [1], 100%. Also, the IC50 (Mus musculus, L1210, no AGP) was 720 ± 380 nM.

For the compound `COc1ccc(CNc2nc(N(CCO)CCO)nc3c(NCc4ccc(OC)c(OC)c4)nc(Cl)nc23)cc1OC` [NU3081, 2-chloro-6-diethanolamino-4,8-bis[(3',4'-dimethoxybenzyl)amino]pyrimidopyrimidine], under setting [1], the inhibition at 1 µM came to 59 ± 2% and the inhibition at 10 µM was 95 ± 9%. For the setting “Mus musculus, L1210, no AGP”, this compound yielded an IC50 of 710 nM.

`OCCN(CCO)c1nc(N2CCc3ccccc3C2)c2nc(Cl)nc(N3CCc4ccccc4C3)c2n1` [NU3082, 2-Chloro-6-diethanolamino-4,8-di-(N-1,2,3,4-tetrahydroisoguinolyl)pyrimidopyrimidine]: the “% Inhibition of 3H-thymidine uptake, No AGP” value (shortened to “% Inhibition … No AGP”) (1 μM compound, no AGP, 1 µM) was 9% and 0%. Also, under setting [1], the inhibition at 10 µM is 22 ± 14%.

On to `OCCN(CCO)c1nc(NCc2ccc(Cl)cc2)c2nc(N(CCO)CCO)nc(NCc3ccc(Cl)cc3)c2n1` [NU3083, 2,6-bis(Diethanolamino)-4,8-di[(4'-chlorobenzyl)amino]pyrimido pyrimidine], for which, under setting [1], the inhibition at 1 µM amounted to 53 ± 15% and the inhibition at 10 µM was determined as 92 ± 14%. Moreover, the half-inhibitory concentration (IC50) (Mus musculus, L1210, no AGP) came to 1110 nM.

For the compound `COc1ccc(CNc2nc(N(CCO)CCO)nc3c(NCc4ccc(OC)c(OC)c4)nc(N(CCO)CCO)nc23)cc1OC` [NU3084, 2,6-bis(Diethanolamino)-4,8-bis[(3',4'-dimethoxybenzyl)amino]pyrimidopyrimidine], the “Effect of AGP on the inhibition of thymidine uptake” value is recorded as “no significant reduction”. In addition, for the setting “1 μM compound, no AGP, 1 µM”, the “% Inhibition … No AGP” value is recorded as 67 ± 10%. Under setting [2], the inhibition at 1 µM is 4% and the inhibition at 10 µM came out at 5%. Besides, under setting [3], the inhibition at 1 µM is 64 ± 3% and the inhibition at 10 µM was 93 ± 10%. Also, under setting [1], the inhibition at 1 µM stood at 74 ± 16% and the inhibition at 10 µM turned out to be 98 ± 5%. Where the note is “Mus musculus, L1210, no AGP”, this compound yielded an IC50 of 250 nM. The “Potency as inhibitor relative to dipyridamole” value (presence and absence of AGP, or of 40 mg/ml human serum albumin) is given as “more potent inhibitors than dipyridamole”.

For `OCCCOc1nc(N2CCCCC2)c2nc(OCCCO)nc(N3CCCCC3)c2n1` [NU3085, 2,6-Di(3'-hydroxypropoxy)-4,8-dipiperidinopyrimidopyrimidine], the “% Inhibition … No AGP” value (10 μM compound, no AGP, 10 µM) was 100% and 76%. For the same compound, the inhibition at 1 µM under setting [1] is 35 ± 5%. Under “Mus musculus, L1210, no AGP”, this compound showed an IC50 of 2360 nM.

Regarding `COc1ccc(CNc2nc(OCC(C)O)nc3c(NCc4ccc(OC)cc4)nc(OCC(C)O)nc23)cc1` (stereo not drawn) [NU3087, 2,6-Di(2'-hydroxypropoxy)-4,8-bis(4'-methoxybenzylamino)pyrimidopyrimidine], the “Effect of AGP on the inhibition of thymidine uptake” value is recorded as “no significant reduction”. Besides, the inhibition at 0.25 µM (Mus musculus, +0.125 mg/ml AGP vs no AGP, read-out: % Reduction (of inhibition by AGP)) is 0%. Besides, the inhibition at 0.25 µM (Mus musculus, +0.125 mg/ml AGP, read-out: % Inhibition of 3H-thymidine uptake, +0.125 mg/ml AGP) came to 20 ± 2%. Moreover, under setting [1], the inhibition at 0.25 µM worked out at 17% and the inhibition at 1 µM was determined as 68 ± 14%. Under “Mus musculus, L1210, no AGP”, the IC50 is about 300 nM.

On to `CN(Cc1ccccc1)c1nc(OCCCO)nc2c(N(C)Cc3ccccc3)nc(OCCCO)nc12` [NU3088, 2,6-Di(3'-hydroxypropoxy)-4,8-di[(N-benzylmethyl)amino]pyrimidopyrimidine], for which the “% Inhibition … No AGP” value (1 μM compound, no AGP) is given as 52 ± 19%; the “% Inhibition … No AGP” value (10 μM compound, no AGP, 10 µM) is 100% and 77%. Further, the IC50 (no AGP) amounted to 1440 nM.

Take `COc1ccc(CNc2nc(OCCO)nc3c(NCc4ccc(OC)cc4)nc(OCCO)nc23)cc1` [NU3089, 2,6-Di(2'-hydroxyethoxy)-4,8-di(4'-methoxybenzylamino)pyrimidopyrimidine]: the “% Inhibition … No AGP” value (1 μM compound, no AGP, 1 µM) was 24 ± 18%. Besides, the inhibition at 1 µM by setting is: under setting [2], 0%; under setting [3], 28 ± 25%; under setting [1], 40 ± 19%. The inhibition at 10 µM under setting [1] is 88 ± 11%. The IC50 reads like this: (Mus musculus, L1210, no AGP) 670 nM; (no AGP) 1200 nM.

`COc1ccc(CN(C)c2nc(OCCCO)nc3c(N(C)Cc4ccc(OC)cc4)nc(OCCCO)nc23)cc1` [NU3090, 2,6-Di(3'-hydroxypropoxy)-4,8-di[(N-4'-methoxybenzylmethyl)amino]pyrimidopyrimidine]: the “% Reduction (of inhibition by AGP)” value (1 μM compound, +5 mg/ml AGP vs no AGP) is 53%. The “% Inhibition of 3H-thymidine uptake, +5 mg/ml AGP” value (1 μM compound, +5 mg/ml AGP, 1 µM) is 32 ± 10% and 32%. The “% Inhibition … No AGP” value is 74 ± 18% and 69 ± 19% (1 μM compound, no AGP, 1 µM); 100 ± 0% (10 μM compound, no AGP). Moreover, the 50% inhibitory concentration (IC50) (no AGP) was 220 nM and 240 nM.

As for `CCCOc1nc(N(C)Cc2ccccc2)c2nc(OCCC)nc(N(C)Cc3ccccc3)c2n1` [NU3091, 2,6-Di(n)propoxy-4,8-di[(N-benzylmethyl)amino]-pyrimidopyrimidine], under “1 μM compound, no AGP”, the “% Inhibition … No AGP” value is “Inactive”. In addition, under setting [1], the inhibition at 10 µM is 8.2 ± 1.1%.

Turning to `COCCOc1nc(N(C)Cc2ccccc2)c2nc(OCCOC)nc(N(C)Cc3ccccc3)c2n1` [NU3092, 2,6-Di(-2'-methoxyethoxy)-4,8-di[(N-benzylmethyl)amino]-pyrimidopyrimidine], under setting [1], the inhibition at 1 µM was 17 ± 8% and the inhibition at 10 µM was 68 ± 8%. The compound also registered an IC50 (Mus musculus, L1210, no AGP) of 5900 nM. For the same compound, it took 3800 nM to reach half-maximal inhibition (no AGP) (IC50).

Take `COCCOc1nc(N2CCCCC2)c2nc(OCCOC)nc(N3CCCCC3)c2n1` [NU3093, 2,6-Di(-2'-methoxyethoxy)-4,8-dipiperidinopyrimidopyrimidine]: the “% Inhibition … No AGP” value (10 μM compound, no AGP, 10 µM) was 68%. Moreover, under setting [1], the inhibition at 1 µM is 20 ± 6% and the inhibition at 10 µM stood at 63%. For the setting “Mus musculus, L1210, no AGP”, this compound registered an IC50 of 4600 nM.

Consider `COCCOc1nc(N(Cc2ccccc2)Cc2ccccc2)c2nc(OCCOC)nc(N(Cc3ccccc3)Cc3ccccc3)c2n1` [NU3094, 2,6-di(-2-methoxyethoxy)-4,8-bis(dibenzylamino) pyrimidopyrimidine], for which, under setting [1], the inhibition at 1 µM stood at 9 ± 10% and the inhibition at 10 µM came out at 15 ± 4%.

With `COCCOc1nc(NCc2ccccc2)c2nc(OCCOC)nc(NCc3ccccc3)c2n1` [NU3095, 2,6-di(-2-methoxyethoxy)-4,8-dibenzylaminopyrimidopyrimidine], under setting [1], the inhibition at 1 µM turned out to be 31.2% and the inhibition at 10 µM came out at 78.4 ± 4.2%. Where the note is “Mus musculus, L1210, no AGP”, this compound showed an IC50 of 2400 nM.

`COc1ccc(CN(C)c2nc(OCCCO)nc3c(N(C)Cc4ccc(OC)c(OC)c4)nc(OCCCO)nc23)cc1OC` [NU3096, 2,6-di(-3-hydroxypropoxy)-4,8-bis[(-3,4-dimethoxybenzyl)-N-methylamino]pyrimidopyrimidine]: the inhibition at 1 µM under setting [1] was determined as 54 ± 2%. Further, the 50% inhibitory concentration (IC50) (Mus musculus, L1210, no AGP) worked out at 750 nM.

In the case of `COc1ccc(CNc2nc(OCCCO)nc3c(NCc4ccc(OC)cc4)nc(OCCCO)nc23)cc1` [NU3097, 2,6-di(-3-hydroxypropoxy)-4,8-di(-4-methoxybenzylamino)pyrimidopyrimidine], the “% Inhibition … No AGP” value (1 μM compound, no AGP, 1 µM) turned out to be 62%. The inhibition at 1 µM reads like this: under setting [2], 21%; under setting [3], 49%; under setting [1], 61 ± 8%. The compound also returned an IC50 (Mus musculus, L1210, no AGP) of 460 nM and an IC50 (no AGP) of 820 nM.
